Measurements: patent US10912780B2, “Heterocyclic compounds useful as anti-bacterial agents and method for production thereof” (Bugworks Research, Inc., priority 2017, dated 2021)
In brackets after ≈: the same amount, converted by molar mass.

Tests used:
[1] = In vivo pharmacokinetic studies in rats, 1 hr intravenous infusion; settings: for AUC(0-t) / AUC(0-inf) / Cmax / Tmax / clearance / half-life / Vd: male, Sprague-Dawley, rat, iv; for Vd: male SD rats, 1 h IV infusion
[2] = tested on: E. cloacae clinical strains; test: Antibacterial susceptibility studies (MIC50 and MIC90) with clinical strains, CLSI guidelines; type: cell-based
[3] = tested on: Acinetobacter baumannii ATCC 19606; test: Minimum Inhibitory Concentration (MIC) in LB media; type: cell-based; settings: Acinetobacter baumannii, ATCC19606;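 also: twofold compound dilutions from DMSO stocks in LB broth microplates, overnight incubation at 37 °C, growth read by absorbance at 600 nm, with DMSO and sterility controls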
Procedure: Bacterial cultures that are stored as glycerol stocks at −80° C. are sub cultured on LB agar plates to obtain isolated colonies. A single colony of each strain is cultured in LB broth. […] Test compounds are dissolved in dimethyl sulfoxide (DMSO) to a stock concentration of 4 mg/ml. A twofold dilution series of this DMSO stock is prepared in a 96 well V bottom microtitre plate from rows A to H. A 3 μL volume of these dilutions are transferred to a 96-well flat bottom microtitre assay plate. Controls to monitor the effects of DMSO and media sterility are included. Each well is inoculated with 150 μL of the above diluted culture. The plates are incubated at 37° C. overnight in a humidified incubator. The following morning, the plates are read using a Spectrophotometer at 600 nm wavelength.

[4] = tested on: A. baumannii clinical strains; test: Antibacterial susceptibility studies (MIC50 and MIC90) with clinical strains, CLSI guidelines; type: cell-based
[5] = biological target: T1, human ether a go-go related gene (hERG) K+ channel (Homo sapiens, UniProt Q12809); test: hERG inhibition assay, QPatch HTX automated electrophysiology; type: cell-based; settings: CHO cell line stably expressing hERG, whole-cell patch clamp, maximum test concentration 300 μM
T1 construct: Chinese Hamster Ovary cell line stably expressing the full-length hERG potassium channel; expressed in transfected cells
T1 sequence (Q12809 whole entry): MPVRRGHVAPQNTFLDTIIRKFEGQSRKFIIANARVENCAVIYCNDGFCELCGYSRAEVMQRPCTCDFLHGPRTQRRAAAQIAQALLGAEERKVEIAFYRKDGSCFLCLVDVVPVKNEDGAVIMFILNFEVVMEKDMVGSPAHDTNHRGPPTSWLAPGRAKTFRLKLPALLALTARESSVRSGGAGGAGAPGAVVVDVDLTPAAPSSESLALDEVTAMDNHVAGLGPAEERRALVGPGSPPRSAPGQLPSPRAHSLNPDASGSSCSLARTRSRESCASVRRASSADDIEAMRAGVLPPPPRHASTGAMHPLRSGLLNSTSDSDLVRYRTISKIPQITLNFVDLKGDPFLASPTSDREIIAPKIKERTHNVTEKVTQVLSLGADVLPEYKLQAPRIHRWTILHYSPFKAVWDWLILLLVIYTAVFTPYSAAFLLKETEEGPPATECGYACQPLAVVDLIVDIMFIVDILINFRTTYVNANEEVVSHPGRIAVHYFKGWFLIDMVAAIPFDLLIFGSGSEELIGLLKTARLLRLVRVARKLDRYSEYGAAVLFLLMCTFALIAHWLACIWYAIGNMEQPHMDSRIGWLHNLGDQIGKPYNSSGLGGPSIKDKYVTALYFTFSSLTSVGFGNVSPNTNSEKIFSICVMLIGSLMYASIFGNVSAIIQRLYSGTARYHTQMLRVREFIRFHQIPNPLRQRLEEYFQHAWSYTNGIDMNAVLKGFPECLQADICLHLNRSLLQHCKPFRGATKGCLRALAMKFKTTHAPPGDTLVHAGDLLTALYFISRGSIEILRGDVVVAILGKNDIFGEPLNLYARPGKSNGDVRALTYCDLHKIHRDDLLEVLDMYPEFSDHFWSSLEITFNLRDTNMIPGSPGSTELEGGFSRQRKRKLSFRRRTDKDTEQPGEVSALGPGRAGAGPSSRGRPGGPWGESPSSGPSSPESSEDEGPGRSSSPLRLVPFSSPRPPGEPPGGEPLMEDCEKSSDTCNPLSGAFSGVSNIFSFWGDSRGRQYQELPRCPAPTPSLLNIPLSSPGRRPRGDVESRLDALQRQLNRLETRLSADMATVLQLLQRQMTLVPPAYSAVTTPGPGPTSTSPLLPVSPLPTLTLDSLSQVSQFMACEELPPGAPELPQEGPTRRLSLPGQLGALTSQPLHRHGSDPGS
Procedure: The compounds were tested for inhibition of the human ether a go-go related gene (hERG) K+ channel using QPatch HTX automated electrophysiology.
Compounds were solubilised to 100 mM in DMSO before dilution in HBPS to 300 μM.
Electrophysiological recordings were made from a Chinese Hamster Ovary cell line stably expressing the full-length hERG potassium channel. Single cell ionic currents were measured in whole-cell patch clamp configuration at room temperature (21-23° C.) using the QPatch HTX platform (Sophion). Intracellular solution contained (mM): 120 KF, 20 KCl, 10 EGTA, 10 HEPES and was buffered to pH 7.3. […] Cells were clamped at a holding potential of −80 mV. […] This sweep was repeated 10 times at 10 s intervals. hERG currents were measured from the tail step and referenced to the holding current. Compounds were then incubated for 2 minutes prior to a second measurement of ion channel current using an identical pulse train.

E. coli topoisomerase IV = E. coli topoisomerase IV (Escherichia coli, UniProt P0AFI2+P20083); test: biochemical; settings: decatenation assay; read-out: E. coli Topo IV IC50
E. coli topoisomerase IV, sequence (P20083 whole entry): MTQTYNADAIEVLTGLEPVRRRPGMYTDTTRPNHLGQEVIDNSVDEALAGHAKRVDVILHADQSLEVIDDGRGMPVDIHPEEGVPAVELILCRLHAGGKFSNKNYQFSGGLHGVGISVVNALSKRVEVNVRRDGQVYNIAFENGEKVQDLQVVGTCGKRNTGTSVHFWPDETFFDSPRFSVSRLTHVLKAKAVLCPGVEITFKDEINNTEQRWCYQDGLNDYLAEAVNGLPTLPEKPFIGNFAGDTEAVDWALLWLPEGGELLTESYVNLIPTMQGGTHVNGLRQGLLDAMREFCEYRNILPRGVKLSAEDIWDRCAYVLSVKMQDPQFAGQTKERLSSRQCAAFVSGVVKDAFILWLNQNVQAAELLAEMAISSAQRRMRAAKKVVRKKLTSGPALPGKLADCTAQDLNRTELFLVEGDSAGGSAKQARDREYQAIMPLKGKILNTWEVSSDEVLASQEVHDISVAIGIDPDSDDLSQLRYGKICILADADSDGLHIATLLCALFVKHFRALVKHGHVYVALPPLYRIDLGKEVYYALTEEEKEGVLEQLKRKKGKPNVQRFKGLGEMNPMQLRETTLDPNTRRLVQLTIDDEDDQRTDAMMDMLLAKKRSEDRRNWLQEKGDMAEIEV
E. coli topoisomerase IV, sequence (P0AFI2 whole entry): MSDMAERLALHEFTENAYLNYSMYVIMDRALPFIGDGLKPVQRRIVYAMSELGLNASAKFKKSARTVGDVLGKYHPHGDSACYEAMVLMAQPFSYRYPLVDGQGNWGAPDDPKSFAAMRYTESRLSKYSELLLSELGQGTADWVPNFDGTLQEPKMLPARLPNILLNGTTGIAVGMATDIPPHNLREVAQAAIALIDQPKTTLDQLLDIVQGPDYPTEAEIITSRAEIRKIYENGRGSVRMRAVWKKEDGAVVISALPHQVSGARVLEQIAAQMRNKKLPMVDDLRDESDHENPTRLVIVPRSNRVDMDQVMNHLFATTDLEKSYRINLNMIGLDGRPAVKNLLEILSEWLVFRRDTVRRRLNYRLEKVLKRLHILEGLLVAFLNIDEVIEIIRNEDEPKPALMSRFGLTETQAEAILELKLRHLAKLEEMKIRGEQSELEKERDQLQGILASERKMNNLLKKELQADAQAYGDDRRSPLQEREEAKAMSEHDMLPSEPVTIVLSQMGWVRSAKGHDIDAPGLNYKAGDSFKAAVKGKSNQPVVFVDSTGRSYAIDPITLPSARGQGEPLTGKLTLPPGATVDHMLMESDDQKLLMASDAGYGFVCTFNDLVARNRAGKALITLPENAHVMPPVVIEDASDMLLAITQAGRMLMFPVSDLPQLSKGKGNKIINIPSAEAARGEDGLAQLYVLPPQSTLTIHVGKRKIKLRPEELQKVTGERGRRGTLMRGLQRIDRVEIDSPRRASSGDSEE

[6] = Enterobacter cloacae, E. cloacae clinical strains (88 strains)

SMILES: Cn1c(=O)ccc2ccc(F)c(CCNC[C@H]3CN(c4cnc5c(n4)NC(=O)CO5)C(=O)O3)c21 [Example 15, (S)-6-(5-(((2-(7-fluoro-1-methyl-2-oxo-1,2-dihydroquinolin-8-yl)ethyl)amino)methyl)-2-oxooxazolidin-3-yl)-2H-pyrazino[2,3-b][1,4]oxazin-3(4H)-one]
- clearance (in words) ([1]; SD rats, 1 hr IV infusion): moderate
- half life (in words) ([1]; SD rats, 1 hr IV infusion): short
- volume of distribution (in words) ([1]; SD rats, 1 hr IV infusion): low
- AUC and Cmax versus dose (in words) ([1]; SD rats, IV infusion at 5, 10, 30 & 100 mg/kg): Dose proportional increase
- AUC(0-t) ([1]; in vivo): 104000 ± 7300 ng·h/mL
- AUC(0-inf) ([1]; in vivo, 30 mg/kg): 14700 ± 200 ng·h/mL
- AUC(0-t) ([1]; in vivo, 30 mg/kg): 14700 ± 200 ng·h/mL
- Cmax ([1]; in vivo, 30 mg/kg): 15200 ± 2200 ng/mL
- Tmax ([1]; in vivo, 30 mg/kg): 1 h
- clearance ([1]; in vivo, 30 mg/kg): 34 mL/min/kg
- half-life ([1]; in vivo, 30 mg/kg): 57.6 ± 1.2 min
- Vd ([1]; in vivo, 30 mg/kg, Vd): 2.83 ± 0.09 L/kg
- Vd ([1]; in vivo, 30 mg/kg, Vss, 30 mg/kg): 0.84 ± 0.06 L/kg
- AUC(0-inf) ([1]; in vivo, 100 mg/kg): 73700 ± 15300 ng·h/mL
- AUC(0-t) ([1]; in vivo, 100 mg/kg): 73700 ± 15300 ng·h/mL
- Cmax ([1]; in vivo, 100 mg/kg): 62600 ± 6700 ng/mL
- Tmax ([1]; in vivo, 100 mg/kg): 1 h
- clearance ([1]; in vivo, 100 mg/kg): 23.3 mL/min/kg
- half-life ([1]; in vivo, 100 mg/kg): 296 ± 30 min
- Vd ([1]; in vivo, 100 mg/kg, Vd): 9.86 ± 1.68 L/kg
- Vd ([1]; in vivo, 100 mg/kg, Vss, 100 mg/kg): 0.9 ± 0.05 L/kg
- AUC(0-inf) ([1]; in vivo, 150 mg/kg): 104000 ± 7300 ng·h/mL
- Cmax ([1]; in vivo, 150 mg/kg): 101000 ± 146000 ng/mL
- Tmax ([1]; in vivo, 150 mg/kg): 1 h
- clearance ([1]; in vivo, 150 mg/kg): 24.2 mL/min/kg
- half-life ([1]; in vivo, 150 mg/kg): 370 ± 25.2 min
- Vd ([1]; in vivo, 150 mg/kg, Vd): 12.9 ± 1 L/kg
- Vd ([1]; in vivo, 150 mg/kg, Vss, 150 mg/kg): 0.86 ± 0.04 L/kg
- AUC(0-inf) ([1]; plasma, 5 mg/kg): 1700 ± 50 ng·h/mL
- AUC(0-t) ([1]; plasma, 5 mg/kg): 1700 ± 50 ng·h/mL
- Cmax ([1]; plasma, 5 mg/kg): 2400 ± 60 ng/mL
- Tmax ([1]; plasma, 5 mg/kg): 0.77 ± 0.01 h
- clearance ([1]; plasma, 5 mg/kg): 48.7 mL/min/kg
- half-life ([1]; plasma, 5 mg/kg): 31.8 ± 1.8 min
- Vd ([1]; plasma, 5 mg/kg, Vd): 2.21 ± 0.012 L/kg
- Vd ([1]; plasma, 5 mg/kg, Vss, 5 mg/kg): 0.91 ± 0.05 L/kg
- MIC50 [2, 6]: 0.25 µg/mL (≈ 0.534 µM)
- MIC90 [2, 6]: 1 µg/mL (≈ 2.13 µM)
- Minimum ([2]; lowest MIC among E. cloacae clinical strains (88 strains), no unit in this line): 0.03
- MIC [3]: 0.06 µg/mL (≈ 0.128 µM)
- MIC ATCC19606 ([4]; A. baumannii reference strain ATCC19606, no unit in this line): 0.06 µg/mL (≈ 0.128 µM)
- MIC50 ([4]; Acinetobacter baumannii): 0.06 µg/mL (≈ 0.128 µM)
- MIC90 ([4]; Acinetobacter baumannii): 0.125 µg/mL (≈ 0.267 µM)
- Minimum ([4]; lowest MIC among A. baumannii clinical strains (169 strains; Example 15: 132), no unit in this line): 0.03
- IC50 [5]: 131 µM
- IC50 (E. coli topoisomerase IV): 10 nM
